Measurements from patent US11298318B2, “One-step method for production of ultra-small lipid structures” (FOUNTAIN TECHNOLOGIES INTERNATIONAL, LLC, priority 2015, dated 2022).

Assay: Pharmacokinetics of EGCG after oral gavage to rats
Type: in vivo
Conditions: 100 mg/kg
Method: Groups of 10 200-g male rats were administered EGCG by oral gavage, in the form of the USLS prepared as in Example 3 (2.1 ml; 100 mg/kg body weight) or as an identical preparation of EGCG without USLS. Blood samples were collected at 5, 10, 30, 60, 120, and 480 minutes post administration. […] Within 5 minutes after oral administration, the USLS-sequestered compound produced a plasma concentration of 600 ng/ml and a peak plasma concentration of 605 ng/ml at 10 minutes post administration. The EGCG administered without sequestration in USLS produced a peak plasma concentration of only 150 ng/ml at 5 minutes post administration.
The pharmacokinetic parameters Cmax (maximum serum concentration), Tmax (time maximum serum concentration is reached), AUC (area under the curve), and Relative Bioavailability were determined from the plasma data and are presented in Table 1, below.

O=C(O[C@@H]1Cc2c(O)cc(O)cc2O[C@@H]1c1cc(O)c(O)c(O)c1)c1cc(O)c(O)c(O)c1 [EGCG control, Epigallocatechin gallate]
time of peak plasma concentration post administration: 5 min
peak plasma concentration of EGCG (FIG. 4): 150 ng/mL
AUC (0-240 min) (Table 1): 14,261
Cmax (maximum serum concentration) (Table 1): 116.57
Tmax (time maximum serum concentration is reached) (Table 1): 5
